Experimental data as given in patent US20260325504A1, “Genetically Engineered Human Pituitary Corticotroph Tumor Organoids Exhibit Divergent Responses to Selective Glucocorticoid Receptor Modulators” (Corcept Therapeutics Incorporated, priority 2022, published 2026).
Entries after “also recorded” stand apart in the source; their conditions may differ.

Legend:
SSTR5 = test: Spectral flow cytometry, SSTR5 positive cells, iPSCUSP48MV organoids; type: cell-based, human; settings: 48 h, FIGS. 8B, F
Description: Sonic Hedgehog (SHH) was withdrawn from the organoid growth media 16 hours prior to treatment. The experimental treatment groups included: vehicle (Veh), mifepristone (500 nM, Selleckchem S2606), GANT61 (5 μM, Stemcell Technologies 73692), ketoconazole (Keto, 10 μM, Selleckchem S1353), pasireotide (Pas, 100 nM, Target Mol TP2207-SB001), octreotide (Oct, 100 nM, Selleckchem P1017), mifepristone plus GANT61, mifepristone plus Keto, mifepristone plus Pas, relacorilant (500 nM, Corcept Therapeutics CORT125134), relacorilant plus Pas, relacorilant plus Oct, or dexamethasone (Dexa, 100 nM, SIGMA S4902). In the combination treatments, cultures were pretreated with the GANT61, Keto, Pas or Oct for 2 hours prior to treatment with mifepristone or Rela. PitNET tissue derived organoids hPITO36, hPITO37, hPITO38, hPITO39, and hPITO40 were treated with the following experimental conditions: Vehicle (1), pasireotide (2), relacorilant (3), relacorilant & pasireotide (4), mifepristone (5), mifepristone & pasireotide (6). The IC50 values used for each hPITO line for each drug were determined based on dose responses (FIG. 12). All organoid cultures were treated for 48 hours prior to analysis.
The multicolor flow cytometry antibody panel was designed using the Cytek® Full Spectrum Viewer online tool to calculate the similarity index. Organoids were harvested in cold Serum-Free Defined Medium media and incubated with Zombie (BioLegend 423107, 1:100) for 15 minutes in the dark at room temperature, followed by incubation with fluorochrome-conjugated/unconjugated primary surface or cytoplasmic antibodies (Table 6) at 4° C. for 30 minutes. Cells were then washed with Cell Staining Buffer (BioLegend 420-201) and incubated at 4° C. for 30 minutes with secondary antibodies (Table 6). Cells were fixed using Cytofix/Cytoperm™ Fixation/Permeabilization Solution (BD Biosciences 554714) and washed with Fixation/Permeabilization wash buffer according to the recommended protocol. […] Data was acquired using the Cytek® Aurora, analyzed using Cytobank Premium software (Beckman Coulter).

PitNET organoids = test: PitNET organoid proliferation, apoptosis and cell death (summary); type: cell-based, human; settings: for tumor cell apoptosis / cell death: PitNET organoids
Description: iPSCs were stained for pituitary specific hormones including luteinizing hormone (LH), follicle-stimulating hormone (FSH), growth hormone (GH), prolactin (PRL), ACTH, cytokeratin 8/18 (CAM5.2), pituitary transcription factor PIT-1 and neuroendocrine marker Synaptophysin (Table 5). Cultures were immunostained for proliferation marker EdU (Click-IT EdU Alexa Fluor 555 Imaging Kit, Thermo Fisher Scientific C10338). Antibody dilutions were determined based on manufacturer guidelines and antibody titration (Table 5). Staining was conducted according to previously published protocols. Briefly, organoids and iPSCs grown in 8-well glass bottom chamber slides were fixed using 3.7% formaldehyde, washed with DPBS, permeabilized with 0.5% Triton X-100 (SIGMA X-100, PBS-T, 20 min at room temperature), washed with 0.01% PBS-T, and blocked with 2% donkey serum (Jackson Immuno Research 017-000-121) for 1 hour at room temperature. After blocking, primary antibodies were added and incubated overnight at 4° C. […] Fluorescence intensity was quantified as the percentage of marker-positive cells versus total cells, using Nikon Elements Software (Version 5.21.05). Proliferation for each iPSC line was quantified as the percentage of EdU-positive cells versus total cells.
Nuclear Morphometric Analysis (NMA) using treated organoids was performed based on a published protocol that measures cell viability based on the changes in nuclear morphology of the cells using nuclear stain Hoechst or DAPI [31]. Images of organoid nuclei were analyzed using the ImageJ Nuclear Irregularity Index (NII) plugin for key parameters that included cell area, radius ratio, area box, aspect, and roundness. Using the published spreadsheet template, the NII of each cell was calculated with the following formula: NII=Aspect−Area Box+Radius Ratio+Roundness. […] The percentage of cells in each NII classification category were calculated and plotted as a histogram using GraphPad Prism. […]

[1] = tested on: patients with Cushing's syndrome; settings: cited from earlier work; for tumor regression / tumor growth: CD patients, pituitary macroadenomas/corticotroph tumors; for ACTH levels in patients / cortisol levels in patients: patients with Cushing's syndrome/CD

CC#C[C@]1(O)CC[C@H]2[C@@H]3CCC4=CC(=O)CCC4=C3[C@@H](c3ccc(N(C)C)cc3)C[C@@]21C [mifepristone, 11β-(4-dimethylaminophenyl)-17ß-hydroxy-17α-(1-propynyl)-estra-4,9-dien-3-one]
percentage of SSTR5 positive cells (SSTR5): significant increase
PitNET organoid proliferation (PitNET organoids; compared to relacorilant): preferentially induced the expression of SSTR2, ACTH secretion and PitNET organoid proliferation
tumor regression / tumor growth [1]: not been observed; also recorded: without tumor growth
hyperglycemia secondary to hypercortisolism ([1]; patients with CD): significantly improves hyperglycemia
ACTH levels in patients [1]: increases ACTH; also recorded: raises ACTH (and thus cortisol) levels
cortisol levels in patients [1]: concomitant increase in cortisol secretion; also recorded: raises ACTH (and thus cortisol) levels
side effects ([1]; patients): significant side effects in some patients; also recorded: endometrial thickening and vaginal bleeding

Cn1cc(S(=O)(=O)N2CCC3=Cc4c(cnn4-c4ccc(F)cc4)C[C@]3(C(=O)c3cc(C(F)(F)F)ccn3)C2)cn1 [relacorilant, (R)-(1-(4-fluorophenyl)-6-((1-methyl-1H-pyrazol-4-yl)sulfonyl)-4,4a,5,6,7,8-hexahydro-1H-pyrazolo[3,4-g]isoquinolin-4a-yl) (4-(trifluoromethyl)pyridin-2-yl) methanone]
magnitude of SSTR5 induction, relacorilant vs mifepristone (SSTR5): significantly greater than that of mifepristone
percentage of SSTR5 positive cells (SSTR5): significant increase
tumor cell apoptosis / cell death (PitNET organoids): induced SSTR5 expression and PitNET organoid apoptosis; also recorded: induced PitNET cell death
tumor cell apoptosis / cell death (PitNET organoids; listed as Relacorilant): induces SSTR5 and tumor cell apoptosis
tumor regression / tumor growth [1]: induce tumor regression in some CD patients
tumor regression ([1]; macroadenomas, treated for three months, imaging of the pituitary gland): tumor regression in two patients
ACTH levels in patients [1]: did not significantly raise ACTH or cortisol levels
cortisol levels in patients [1]: did not significantly raise ACTH or cortisol levels
effects of excess cortisol on hypertension and insulin resistance ([1]; phase 2 study, patients with Cushing's syndrome): reversed the effects of excess cortisol on hypertension and insulin resistance
